Legend:
[1] = test system: Monoclonal Anti-Dinitrophenyl antibody conjugated with HRP; test: Competitive DNP ELISA with DNP linkers on streptavidin plates; type: binding, mouse; conditions: FIG. 25
Procedure: Monoclonal Anti-Dinitrophenyl antibody produced in mouse (D8406) and 2,4-Dinitrophenol (D198501 was purchased from Sigma. The anti-DNP antibody was directly conjugated with HRP using a commercial kit e.g., LIGHTENING-LINK™ Antibody Labeling Kits available from Novus Biolgicals. Once again ELISA plate coated with streptavidin was used as described in FIG. 19. After blocking, the plates were incubated with the respective linker. Different concentrations of DNP with anti-DNP antibody was co-incubated for 45 minutes at room temperature in the dark. After incubation, the wells were washed 3 times with 200 μL PBST and incubated with 150 μL TMB for 10 minutes. Finally, 150 μL of stop solution was added and absorbance measurement was observed. FIG. 25 is a plot showing ELISA results with Mono-DNP linker (blue) versus PEG-Dual-DNP linker (red). As with the dual histadine linkers, a clear difference could be seen between single and dual DNP linker. There is nearly a 30% increase in the signal intensity from single to dual DNP molecule.

[2] = test system: anti-histamine antibody conjugated to HRP; test: Refined 5 min histamine ELISA with anti-histamine antibody conjugated to HRP; type: binding; conditions: for starting signal compared to PEG-mono histidine: 5 min assay; for Kd: Hill equation fit without the 0 nM histamine data point, read-out: dissociation constant (Kd)
Procedure: The assay was further refined to decrease the total assay time. This was achieved by conjugating the anti-histamine antibody to the detection enzyme HRP 192 as depicted by FIG. 19. The resultant assay could be completed within 5 min. For the present study, only PEG-mono histidine and PEG-dual histidine were used. FIG. 20A and FIG. 20B show the results obtained from the study.
The data points obtained were fitted using a Hill equation which further assisted to characterize the linkers under study.
Histamine detection assay could be performed in two formats. The first format includes the immobilization of histamine conjugates to the solid support while the second format includes the immobilization of anti-histamine antibody on the solid support. For the immobilization of histamine conjugates the immobilization sample was prepared in 0.2 M carbonate-bicarbonate buffer (pH 9.4). Immobilisation samples herein refers to BSA-histamine, Streptavidin, and not limited to BSA-Histidine Samples. A high binding polystyrene 96 well ELISA plate was coated with 100 microliters of immobilization sample and the plates were incubated overnight at 4° C. Each well was then washed thrice with 0.01M phosphate-buffered saline with 0.05% Tween 20 (pH 7.4). To each well was then added 250 microliters 1% BSA solution prepared in 0.01M phosphate-buffered saline with 0.05% Tween 20 (pH 7.4) for 1 hour at ambient temperature. Each well was then washed three times with 0.01M phosphate-buffered saline with 0.05% Tween 20 (pH 7.4). For Streptavidin coated plates, to each well was then added 100 microliters of linkers prepared in 0.1% BSA in 0.01M phosphate-buffered saline with 0.05% Tween 20 (pH 7.4) as described in the other sections for 2 hours at ambient temperature on a shaker at 260 rpm. Each well was then washed three times with 0.01M phosphate-buffered saline with 0.05% Tween 20 (pH 7.4). The plate was then incubated with 50 microlitres of different concentration of free histamine and co-incubated with anti-histamine antibody for 1 hour at ambient temperature. […]. Anti-histamine antibody was prepared in 0.1% BSA in 0.01M phosphate-buffered saline with 0.05% Tween 20 (pH 7.4). After the incubation, each well was washed three times with 0.01M phosphate-buffered saline with 0.05% Tween 20 (pH 7.4). The plates were then incubated with a secondary antibody labelled with HRP prepared in 0.1% BSA in 0.01M phosphate-buffered saline with 0.05% Tween 20 (pH 7.4) in for 1 hour at ambient temperature. After the incubation, each well was washed three times with 0.01M phosphate-buffered saline with 0.05% Tween 20 (pH 7.4). Each well was then incubated with TMB turbo (150 microlitres) for 30 minute (measurement at a wavelength of 650 nm) followed by addition of 150 microlitres of 0.16 M Sulphuric acid to stop the solution in some examples where measurements are taken at a wavelength of 450 nm. […] Independent incubation time is described in each section.

[3] = test system: anti-histamine antibody conjugated to HRP; test: ELISA affinity of anti-histamine antibody-HRP to different linkers, without free histamine; type: binding; conditions: 5 minutes, no free histamine, compared to PEG-mono-histidine linker, FIG. 26
Source text: FIG. 26 is a plot of a comparison of PEG-mono histamine with PEG-mono histidine using streptavidin coated ELISA plates. As illustrated, the data presents the affinity of anti-histamine antibody conjugated to HRP to different histamine conjugate linkers. As in the previous studies, streptavidin modified plates were used, here to study PEG-Mono-Histamine, PEG-mono-Histidine, PEG-phenyl-histidine and PEG-glutamate-histidine. The assay format was as per FIG. 19 without free histamine in the solution. The modified plates were then exposed to different concentrations of anti-histamine antibodies conjugated with HRP for 5 minutes.

anti-histamine antibody [4] = test: Competitive histamine ELISA with PEG linkers on streptavidin plates, anti-IgG HRP detection; type: binding
Procedure: To identify an antibody that recognizes free histamine with improved (lower) binding affinities, we used the PEG-mono-histidine linker (Structure 1) as a target with antibodies that we previously screened with BSA-histamine, i.e., the antibodies listed in FIG. 3A. […] The monovalent histidine linker (25 μM) 86 was added for 1 hour, and then 5 μg ml^−1 anti-histamine antibody was incubated with different concentrations of soluble histamine for 1 hour at room temperature on a shaker 88. Finally, anti-IgG labelled HRP 810 was used to detect the bound antibodies.
The monovalent histidine linker (25 μM) 86 was added for 1 hour, and then 5 μg ml^−1 anti-histamine antibody was incubated with different concentrations of soluble histamine for 1 hour at room temperature on a shaker 88. Finally, anti-IgG labelled HRP 810 was used to detect the bound antibodies.
Histamine detection assay could be performed in two formats. The first format includes the immobilization of histamine conjugates to the solid support while the second format includes the immobilization of anti-histamine antibody on the solid support. For the immobilization of histamine conjugates the immobilization sample was prepared in 0.2 M carbonate-bicarbonate buffer (pH 9.4). Immobilisation samples herein refers to BSA-histamine, Streptavidin, and not limited to BSA-Histidine Samples. A high binding polystyrene 96 well ELISA plate was coated with 100 microliters of immobilization sample and the plates were incubated overnight at 4° C. Each well was then washed thrice with 0.01M phosphate-buffered saline with 0.05% Tween 20 (pH 7.4). To each well was then added 250 microliters 1% BSA solution prepared in 0.01M phosphate-buffered saline with 0.05% Tween 20 (pH 7.4) for 1 hour at ambient temperature. Each well was then washed three times with 0.01M phosphate-buffered saline with 0.05% Tween 20 (pH 7.4). For Streptavidin coated plates, to each well was then added 100 microliters of linkers prepared in 0.1% BSA in 0.01M phosphate-buffered saline with 0.05% Tween 20 (pH 7.4) as described in the other sections for 2 hours at ambient temperature on a shaker at 260 rpm. Each well was then washed three times with 0.01M phosphate-buffered saline with 0.05% Tween 20 (pH 7.4). The plate was then incubated with 50 microlitres of different concentration of free histamine and co-incubated with anti-histamine antibody for 1 hour at ambient temperature. […]. Anti-histamine antibody was prepared in 0.1% BSA in 0.01M phosphate-buffered saline with 0.05% Tween 20 (pH 7.4). After the incubation, each well was washed three times with 0.01M phosphate-buffered saline with 0.05% Tween 20 (pH 7.4). […]

anti-histamine antibody [5] = test: Electrochemical biosensor for free histamine detection; type: binding; conditions: gold electrode, FIG. 12B
Procedure: The Immuno-assay developed on the ELISA plates was translated to an electrochemical platform to provide a biosensor for free histamine detection. The lowest concentration tested with the sensor was 2.7 nM which generated a statistically significant difference from the background. […] FIG. 12B is a semi-log plot showing the calibration curves for the electrochemical sensor using the structure depicted by FIG. 12A. Detection occurs as free […] competes and displaces Biotin-PEG6-Histidine conjugate from the anti-histamine.

anti-histamine antibody [6] = test: 5-minute electrochemical assay in spiked human plasma samples; type: binding
Source text: The Immuno-assay developed on the ELISA plates using PEG-dual Histidine was translated to an electrochemical platform to develop a biosensor for free histamine detection in human plasma samples.

anti-histamine antibody [7] = test: Histamine ELISA in spiked human plasma samples, conventional plate versus BSA-glutaraldehyde surface chemistry; type: binding; conditions: FIG. 28
Procedure: In order for the assay design to be used for clinical applications for the rapid quantification of allergy severity, using clinical samples (e.g. human plasma, serum) is one of the most critical aspects. An ELISA plate was prepared using conventional means as shown in FIG. 19 using PEG-dual-histidine. In an alternative approach, an ELISA plate was prepared using the BSA-glutaraldehyde surface chemistry as previously described in international Application No. PCT/US2018/044076, the content of which is herein incorporated by reference. In contrast to the previously described system, no nanoparticles were used. Therefore BSA can be denatured and combined with glutaraldehyde and used to coat ELISA wells. This is then activated using and (1-ethyl-3-(3-dimethylaminopropyl)carbodiimide hydrochloride)/[…] (EDC/NHS) to link to streptavidin which allows attachment of biotin-PEG-dual-histidine. It can be clearly seen full blocking of the ELISA plate when human plasma samples are used for histamine detection. […] As per to date, no method exists to detect histamine in less than 10 minutes.

[8] = test system: anti-histamine antibody labelled with HRP; test: 5 min histamine ELISA with BSA-PEG-mono-Histidine conjugate coated plates; type: binding; conditions: 5 min incubation, FIG. 23
Procedure: The thiol-PEG-mono Histidine linker was attached to BSA as follows. A 1 mL aliquot of maleimide conjugation buffer obtained from Thermo scientific was added to 10 mg of purified thiol-PEG-mono Histidine linker. Subsequently, the 1 mL solution containing the thiol-PEG-mono Histidine was added to 5 mg of commercially available BSA-maleimide substrate and allowed to react at room temperature for 4 h to provide the histidine-PEG-BSA conjugate. The histidine-PEG-BSA conjugate was purified using a 10K spin column. The histidine-PEG-BSA conjugate obtained was then used to modify the ELISA plate wells and assay was performed using a 5 min incubation time. […] The steps include coating the plates with BSA-PEG-Histidine conjugate 222, blocking with BSA 224, and incubation with HRP labeled anti-histamine antibody and free histamine 226. FIG. 23 presents the results obtained and compared to BSA-histamine (commercial, FIG. 5). […] The used and anti-histamine antibody labelled with HRP in a 5 min incubation time assay.

NC(=O)C(CCCCNC(=O)C(CCCCNc1cc([N+](=O)[O-])ccc1[N+](=O)[O-])Nc1cc([N+](=O)[O-])ccc1[N+](=O)[O-])NC(=O)CCOCCOCCOCCOCCNC(=O)CCCCC1SC[C@H]2NC(=O)N[C@@H]12 (stereo partly drawn) [dual DNP, Biotin-PEG-Dual-DNP]
increase in the signal intensity from single to dual DNP molecule ([1]; 45 min co-incubation): ~30% | dynamic range compared to single DNP linker [1]: broader dynamic range

NC(=O)C(CCCCNC(=O)C(Cc1ccccc1)NC(=O)C(N)Cc1cnc[nH]1)NC(=O)CCOCCOCCOCCOCCNC(=O)CCCCC1SC[C@@H]2NC(=O)N[C@H]12 (stereo partly drawn) [PEG-phenyl-histidine, Biotin-PEG-Phenyl-Histadine]
sensitivity of the assay compared to PEG-mono-histidine ([2]; 5-minute histamine assay, FIG. 27): no significant difference | starting signal compared to PEG-mono histidine [2]: lower starting signal | binding affinity of anti-histamine antibody [3]: decreased significantly

NC(Cc1c[nH]cn1)C(=O)NCCOCCOCCOCCOCCOCCOCCNC(=O)CCCCC1SC[C@H]2NC(=O)N[C@@H]12 (stereo partly drawn) [PEG-mono Histidine, Biotin-PEG-Mono-Histidine]
signal enhancement and sensitivity versus immobilized BSA-histamine (anti-histamine antibody [4]; FIG. 10): significantly improved | lowest concentration tested generating a statistically significant difference from the background (anti-histamine antibody [5]): 2.7 nM | Kd ([2]; FIG. 21): 449 nM

NC(=O)C(CCCCNC(=O)C(CCCCNC(=O)C(N)Cc1c[nH]cn1)NC(=O)C(N)Cc1c[nH]cn1)NC(=O)CCOCCOCCOCCOCCNC(=O)CCCCC1SC[C@H]2NC(=O)N[C@@H]12 (stereo partly drawn) [PEG-dual Histidine, Biotin-PEG-Dual-Histidine]
starting signal compared to PEG-mono-histidine (anti-histamine antibody [4]; 5 min incubation of anti-histamine antibody, FIG. 18A): increased starting signal | antibody binding specificity and sensitivity compared to the single histidine conjugate (anti-histamine antibody [4]; FIG. 11): significant improvement | starting signal compared to PEG-mono histidine [2]: higher starting signal | dynamic range compared to PEG-mono histidine ([2]; FIG. 21): broader dynamic range | Kd ([2]; FIG. 21): 280 nM | Kd (anti-histamine antibody [6]; Hill equation fit without the 0 nM histamine data point, human plasma): 6.76 nM | histamine concentration generating a statistically significant current change (anti-histamine antibody [6]; spiked human plasma, FIG. 24): 3.75 nM | histamine detection in spiked human plasma (anti-histamine antibody [7]; BSA-glutaraldehyde surface chemistry, under 10-minute assay): clear detection of histamine | histamine detection in spiked human plasma (anti-histamine antibody [7]; ELISA plate prepared by conventional means): full blocking

biotin-EG6-histamine [PEG-mono-histamine]
detection of free histamine (anti-histamine antibody [4]; concentration range studied, streptavidin coated plates, FIG. 15): could not be detected | binding affinity of anti-histamine antibody [3]: high binding affinity

NC(=O)C(CCCCNC(=O)C(CCC(=O)O)CC(=O)C(N)Cc1cnc[nH]1)NC(=O)CCOCCOCCOCCOCCNC(=O)CCCCC1SC[C@H]2NC(=O)N[C@@H]12 (stereo partly drawn) [PEG-glutamate-histidine, Biotin-PEG-Glutamate-Histadine]
binding affinity of anti-histamine antibody [3]: nearly no binding

PEG-mono Histidine modified BSA: thiol-PEG-mono Histidine linker (Structure 5) attached to commercially available BSA-maleimide
sensitivity towards free histamine compared to BSA-histamine (commercial) [8]: increased sensitivity

Source: patent US20220026420A1, “MOLECULES AND METHODS FOR IMPROVED IMMUNODETECTION OF SMALL MOLECULES SUCH AS HISTAMINE” (PRESIDENT AND FELLOWS OF HARVARD COLLEGE, priority 2018, published 2022)
